In patent US12544421B2, “VDAC inhibitors for treating inflammatory bowel diseases” (THE NATIONAL INSTITUTE FOR BIOTECHNOLOGY IN THE NEGEV LTD., priority 2018, dated 2026):

Legend:
DSS-induced IBD mice [1] = test: Dextran sodium sulfate (DSS)-induced colitis / IBD mouse model: weight, survival, colon and cecum length, clinical score, spleen weight; assay type: in vivo, C57BL/6 mice
[2] = test system: colon of DSS-induced IBD mice; test: Histological sections of colon of DSS-induced IBD mice (H&E, anti-VDAC1 immunostaining); assay type: in vivo, C57BL/6 mice
From the text: FIGS. 6A-6D are micrographs of histological sections of DSS-induced IBD in C57BL/6 mice, stained with hematoxylin and eosin (H&E). Scale bar represents 100 μm. (6A) Control; (6B) 2.5% DSS; (6C) DSS+VBIT-4; and (6D) DSS+VBIT-12.
FIGS. 7A-7D are micrographs of histological sections of DSS-induced IBD in C57BL/6 mice highlighting the effects of VBIT-4 and VIBT-12 on the colon wall thickness and lymphatic infiltration thereto. (7A) Control; (7B) 2.5% DSS; (7C) DSS+VBIT-12; and […] DSS+VBIT-4.
FIGS. 8A-8D are micrographs of histological sections of DSS-induced IBD in C57BL/6 mice, immunostained with an anti VDAC-1 specific antibody. (8A) Control; (8B) 2.5% DSS; (8C) 2.5% DSS+VBIT-4; and (8D) 2.5% DSS+VBIT-12.
IBD colons were also found to contain large lymphatic sacks and also experienced high infiltration of inflammatory cells towards the colonic lumen.

CT-26 cells and MEFs = test: H2O2-induced mtDNA release from cells in culture; assay type: cell-based, mouse; conditions: 20 μM compound, 100 or 200 μM H2O2, 20 h, CT-26 and MEFs
Procedure: Murine colorectal carcinoma cell line from a BALB/c mouse (CT26) and mouse embryonic fibroblast (MEF) cell lines were grown at 37° C. under an atmosphere of 95% air and 5% CO2 in DMEM supplemented with 10% FBS, 2 mM L-glutamine, 1,000 U/ml penicillin and 1 mg/ml streptomycin.
Cells were seeded (150,000 cells/well) in 6-well culture dishes to 40-60% confluence. After 24 h cells were incubated for 20 h with 100 or 200 μM of H2O2 in the absence or the presence of VBIT-4 and VBIT-12. Cells washed and subjected to mtDNA release as described below. For VDAC1 silencing, CT-26 cells were seeded (150,000 cells/well) in 6-well culture dishes to 40-60% confluence. After 24 h cells were transfected with 75 nM of non-targeting siRNA (si-NT) or siRNA targeting VDAC1 recognizing both human and mouse VDAC1 (si-m/hVDAC1) using the JetPRIME transfection reagent, according to the manufacturers' instructions. Forty-eight (48) h post-transfection with either si-NT or si-m/hVDAC1, cells were incubated for 20 h with 100 μM of H2O2. Cells washed and subject to mtDNA release as described below.
Cells (e.g., CT-26, MFFs) were re-suspended in 170 μl digitonin buffer containing 150 mM NaCl, 50 mM HEPES pH 7.4, and 25 μg/ml digitonin (EMD Millipore Corp). The homogenates are incubated on a rotator for 10 min at room temperature, followed by centrifugation at 16,000 g for 25 min at 4° C. […]

DSS-induced IBD mice [3] = test: Dextran sodium sulfate (DSS)-induced colitis / IBD mouse model: weight, survival, colon and cecum length, clinical score, spleen weight; assay type: in vivo, C57BL/6 mice; remark: listed apart in the source
From the text: Healthy female, specific pathogen free (SPF) C57BL/6 (H-2b), 6-7 weeks old mice were obtained from Invigo, Israel. Animal housing and care conditions was maintained according to the experimental protocols approved by the Institutional Animal Care and Use Committee. Mice were weighed and examined for health.
Animals were provided ad libitum a commercial rodent diet, and free access to either regular or DSS-containing drinking water for the respective designated test groups, supplied to each cage via polyethylene bottles with stainless steel sipper tubes.
Dextran sodium sulfate (DSS)-induced colitis was used.
All animals were subjected to experimental Colitis induction by providing DSS in the drinking water, continuously supplied ad libitum for 6 days, followed subsequently by 8 days of regular drinking water until study termination on day 14 (FIG. 1A).
Determination of individual body weights of mice was performed before disease induction and thereafter once daily, starting from study day 0 until the time of scheduled euthanasia of survivors on Day 14.
Animals were observed, and clinical signs recorded once daily starting from study day 1 and onwards until the time of scheduled euthanasia. Evaluation of clinical signs was scored according to the grading system listed below.
Immediately after euthanasia, the entire large intestine from the ileo-caecal junction to the anus were removed, weighed and the length of the colon was measured using a ruler.
The Maximal Scores of all mice in each group was be summed, and the MMS calculation was as follows: […]
The mean colon length of each group was calculated, and the percentage of shortening of the colon was calculated as follows: […]
The mean caecum length of each group was calculated, and the percentage of shortening of caecum was calculated as follows: […]

[4] = DSS-induced IBD mice, 20 mg/kg, n=6
[5] = DSS-induced IBD mice, 20 mg/kg, value before the brackets
[6] = DSS-induced IBD mice, 20 mg/kg, value in brackets

O=C(CC(CO)N1CCN(c2ccc(OC(F)(F)F)cc2)CC1)Nc1ccc(Cl)cc1 (centres unmarked) [VBIT-4, N-(4-chlorophenyl)-4-hydroxy-3-(4-(4-(trifluoromethoxy)phenyl)-piperazin-1-yl)butanamide]
Change (%) of weight, day 8 to day 15 (DSS-induced IBD mice [1]; 20 mg/kg, value in brackets): 13.9%
Weight (gr) day 15 (DSS-induced IBD mice [1]; compound 20 mg/kg, day 15): 13.9 gr
Colon histology: inflammatory cells and infiltration ([2]; compared to IBD mice): fewer inflammatory cells with reduced/no infiltration activity
Colon histology: colon wall thickness / villi ([2]; compared to IBD mice and non-IBD control): thinner colon walls
Release of mtDNA from cells induced by H2O2 (CT-26 cells and MEFs): inhibited
% Mortality (DSS-induced IBD mice [3]; 2.5% DSS, 20 mg/kg, n=6): 33.3%
died (number of mice) (DSS-induced IBD mice [3]; 2.5% DSS, 20 mg/kg, n=6): 2
Body weight at experiment termination versus DSS-induced IBD mice (in words) (DSS-induced IBD mice [3]; DSS-induced IBD mice): higher weights
Survival rate at experiment termination versus DSS-induced IBD mice (in words) (DSS-induced IBD mice [3]; DSS-induced IBD mice): increased survival rates
Cecum length, mm (DSS-induced IBD mice [3]; [4]): 8.7 ± 2.4 mm
MMS (mean maximal score; stool consistency and rectal bleeding, 0-5) (DSS-induced IBD mice [3]; [4]): 3.05 ± 0.55
Colon length, mm (DSS-induced IBD mice [3]; DSS-induced IBD mice, 20 mg/kg, n=6, at termination): 48.00 ± 4.84 mm
Change of weight, day 1 to day 8 (absolute) (DSS-induced IBD mice [3]; [5]): −3.2 gr
Change of weight, day 8 to day 15 (absolute) (DSS-induced IBD mice [3]; [5]): 1.7 gr
Change (%) of weight, day 1 to day 8 (DSS-induced IBD mice [3]; [6]): −20.8%
Colon, % Shortening relative to the DSS-induced control (=100) (DSS-induced IBD mice [3]; [6]): 73%
Cecum, % Shortening (DSS-induced IBD mice [3]; DSS-induced IBD mice, 20 mg/kg, versus naive): 33.1%
Colon, % Shortening (DSS-induced IBD mice [3]; DSS-induced IBD mice, 20 mg/kg, versus naive, value before the brackets): 26.2%
Weight (gr) day 1 (DSS-induced IBD mice [3]; DSS-induced IBD mice, compound 20 mg/kg, day 1): 15.4 gr
Weight (gr) day 8 (DSS-induced IBD mice [3]; DSS-induced IBD mice, compound 20 mg/kg, day 8): 12.2 gr
